Experimental data from patent EP1157000B1 (Warner-Lambert Company LLC, priority 1999, dated 2001).
Where a name gives a salt, the structure may show the parent alone.

Target: T1, rBCATc (Rattus norvegicus, UniProt P54690)
T1 construct: The supernatant was dialyzed with at least three changes of dialysis buffer; from tissue; host or cells: rat brain (high-speed supernatant of homogenate, dialyzed)
T1 sequence (P54690 1-411): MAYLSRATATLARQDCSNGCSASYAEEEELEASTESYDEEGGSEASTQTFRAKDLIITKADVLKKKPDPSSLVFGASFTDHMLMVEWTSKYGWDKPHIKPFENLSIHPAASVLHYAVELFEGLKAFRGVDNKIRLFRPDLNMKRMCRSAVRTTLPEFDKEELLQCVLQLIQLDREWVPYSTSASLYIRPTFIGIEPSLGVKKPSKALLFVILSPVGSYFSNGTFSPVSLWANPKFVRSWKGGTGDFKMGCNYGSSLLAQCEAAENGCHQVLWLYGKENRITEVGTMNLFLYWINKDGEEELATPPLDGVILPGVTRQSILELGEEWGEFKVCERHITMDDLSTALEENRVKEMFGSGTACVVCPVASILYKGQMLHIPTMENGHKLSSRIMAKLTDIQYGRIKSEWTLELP
Test: Assay of BCAT ([14C] L-leucine transamination, rat brain supernatant enzyme)
Format: biochemical
Settings: 25 µM [14C] L-leucine, 10 mM 2-oxoglutarate, pH 8.3, 10 min, 22 °C; read-out: rBCATc IC50
Method: Enzyme preparation: Frozen rat brains were thawed on ice and minced into fine pieces. […] The samples were homogenized in Potters homogenizer (B. Bran Biotech International) at 500 rpm for ten strokes, followed by additional ten strokes at 800 rpm. The homogenates were centrifuged in Beckman J2-M1 centrifuge with rotor JA-20 at 19, 000 rpm for 1 hr. […] The resulting enzyme was stored at -80 °C for further assays.
The solutions for the reaction mixture were made in 10-fold concentrations. After 10 min incubation at room temperature (22 °C), the reaction was stopped by adding 100 µl of 15 mM p-nitrophenyl hydrazine in 2 M HCL. After a few minutes, 1 mL of a toluene-based scintillation liquid (4.5 g of PPO and 0.5 g ofbis-MSB in 1 liter of toluene) was added, the tube was capped and mixed thoroughly with a Vortex mixer. […] Six hundreds µl of organic layer from each tube was placed into scintillation vials, followed by adding 10 ml of scintillation cocktail for counting.

| SMILES | IC50 [µM] |
| --- | --- |
| O=C(O)CC1(CNCC2CCCCC2)CCCCC1 [Example 38, {1-[(Cyclohexylmethyl-amino)-methyl]-cyclohexyl}-acetic acid; hydrochloric salt] | 2620 |
| CC(C)(C)OC(=O)NCC1(CC(=O)O)CCCCC1 [Example 39, [1-(tert-Butoxycarbonylamino-methyl)-cyclohexyl]-acetic acid] | 933 |
| CC(=O)NCC1(CC(=O)O)CCCCC1 [Example 40, [1-(Acetylamino-methyl)-cyclohexyl]-acetic acid] | 3800 |
| C[C@@H]1C[C@H](C)CC(CNC2CCC2)(CC(=O)O)C1 (stereo partly drawn) [Example 41, ((3R, 5S)-1-Cyclobutylaminomethyl-3,5-dimethyl-cyclohexyl)-acetic acid; hydrochloride salt] | 363 |
| CCC(C)CNCC1(CC(=O)O)C[C@H](C)C[C@H](C)C1 (stereo partly drawn) [Example 42, {(3R, 5S)-3,5-Dimethyl-1-[(2-methyl-butylamino)-methyl]-cyclohexyl}-acetic acid; hydrochloride salt] | 669 |
| CC(CO)NCC1(CC(=O)O)C[C@H](C)C[C@H](C)C1 (stereo partly drawn) [Example 43, {(3R, 5S)-1-[(2-Hydroxy-1-methyl-ethylamino)-methyl]-3,5-dimethyl-cyclohexyl}-acetic acid; hydrochloride salt] | 2080 |
| COC(CNCC1(CC(=O)O)C[C@H](C)C[C@H](C)C1)OC (stereo partly drawn) [Example 44, {(3R, 5S)-1-[(2,2-Dimethoxy-ethylamino)-methyl]-3,5-dimethylcyclohexyl}-acetic acid; hydrochloride salt] | 2730 |
| C[C@@H]1C[C@H](C)CC(CNCC2CCCC2)(CC(=O)O)C1 (stereo partly drawn) [Example 45, {(3R, 5S)-1-[(Cyclopentylmethyl-amino)-methyl]-3,5-dimethylcyclohexyl}-acetic acid; hydrochloride salt] | 1330 |
| C[C@@H]1C[C@H](C)CC(CNCC2CCCCC2)(CC(=O)O)C1 (stereo partly drawn) [Example 46, {(3R, 5S)-1-[(Cyclohexylmethyl-amino)-methyl]-3,5-dimethylcyclohexyl}-acetic acid; hydrochloride salt] | 1130 |
| C[C@@H]1C[C@H](C)CC(CNC2CCCCC2)(CC(=O)O)C1 (stereo partly drawn) [Example 47, ((3R, 5S)-1-Cyclohexylaminomethyl-3,5-dimethyl-cyclohexyl)-acetic acid; hydrochloride salt] | 15600 |
| C[C@@H]1C[C@H](C)CC(CC(=O)O)(CC(=O)O)C1 [Example 48, ((3R,5S)-1-Carboxymethyl-3,5-dimethyl-cyclohexyl)-acetic acid] | 8530 |
| C[C@@H]1C[C@H](C)C[C@](CO)(CC(=O)O)C1 [Example 49, trans-((3R, 5S)-1-Hydroxymethyl-3,5-dimethyl-cyclohexyl-acetic acid; hydrochloride salt] | 84 |
| C[C@@H]1C[C@H](C)C[C@@](CO)(CC(=O)O)C1 [Example 50, cis-((3R, 5S)-1-Hydroxymethyl-3,5-dimethyl-cyclohexyl-acetic acid; hydrochloride salt] | 842 |
| CN(C)CC1(CC(=O)O)CCCCC1 [Example 51, (1-Dimethylaminomethyl-cyclohexyl)-acetic acid; hydrochloride salt] | > 10000 |
| CCCCNCC1(CC(=O)O)CCCCC1 [Example 52, (1-Butylaminomethyl-cyclohexyl)-acetic acid; hydrochloride salt] | 2520 |
| COC(CNCC1(CC(=O)O)CCCCC1)OC [Example 53, {1-[2,2-Dimethoxy-ethylamino)-methyl]-cyclohexyl}-acetic acid; hydrochloride salt] | 3340 |
| CNCC1(CC(=O)O)CCCCC1 [Example 54, (1-methylaminomethyl-cyclohexyl)-acetic acid; hydrochloride salt] | 217 |
| CN(Cc1ccccc1)CC1(CC(=O)O)CCCCC1 [Example 55, {1-[(Benzyl-methyl-amino)-methyl]-cycloheayl}-acetic acid; hydrochloride salt] | 9240 |
| C[C@@H]1C[C@H](C)CC(CO)(CC(=O)O)C1 (stereo partly drawn) [Example 58, ((3R, 5S)-1-Hydroxymethyl-3,5-dimethyl-cyclohexyl)-acetic acid; sodium salt] | 179 |
| CCC1CCC(CN)(CC(=O)O)CC1 (stereo not drawn) [Example 60, (1-Aminomethyl-4-ethyl-cyclohexyl)-acetic acid; hydrochloric salt] | 11500 |
| CCCC1CCC(CN)(CC(=O)O)CC1 (stereo not drawn) [Example 61, (1-Aminomethyl-4-propyl-cyclohexyl)-acetic acid; hydrochloric salt] | 114 |
